The values below come from patent publication US7378375B1, “Substituted pyridine herbicides” (Syngenta Crop Protection, Inc., priority 2000, dated 2008).

In assay [1] the test system is Monocotyledonous and dicotyledonous test plants. As to the kind of experiment: Herbicidal action before emergence of the plants (pre-emergence action), greenhouse pot test, 9-level rating after 4 weeks. It counts as in vivo. More on the design: key: 9-level scale: 1 = complete damage, 9 = no effect. The conditions noted are these: 250 g/ha, rated after 4 weeks, 9-level scale. The method in brief:
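Compounds applied pre-emergence as a spray (500 l water/ha) of aqueous suspension or emulsion onto soil immediately after sowing mono- and dicot species in pots. Greenhouse-grown; damage rated after 4 weeks on a 9-level scale (1=complete damage, 9=no effect).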

For assay [2] the test system is unchanged. As to the kind of experiment: Post-emergence herbicidal action, greenhouse pot test, sprayed at the 2- to 3-leaf stage, 9-level rating after 2 to 3 weeks. More on the design: key: 9-level scale: 1 = complete damage, 9 = no effect. It counts as in vivo. The conditions noted are these: 250 g/ha, rated after 2 to 3 weeks, 9-level scale. The method in brief: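 Plants grown in standard soil in pots; test substances sprayed at the 2- to 3-leaf stage at optimum dosage (500 l water/ha) as aqueous suspension or emulsion from formulated concentrates. Plants then kept in the greenhouse under optimum conditions; rated after 2 to 3 weeks on a 9-level scale (1=complete damage, 9=no effect).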

Consider `CCOCCOCc1nc(C(F)(F)F)ccc1C(=O)c1cnn(C)c1OS(C)(=O)=O` [A11-C28], for which, in assay [1], the “Pre-emergence action rating, Abutilon” value was determined as 2; the “Pre-emergence action rating, Amaranthus” value came to 1; the “Pre-emergence action rating, Chenop.” value came to 1; the “Pre-emergence action rating, Digitaria” value is 2. In assay [1], the “Pre-emergence action rating, Echino.” value came out at 1 and the “Pre-emergence action rating, Panicum” value is reported as 2. Also, in assay [2], the “Post-emergence action rating, Abutilon” value was 3; the “Post-emergence action rating, Amaranth” value is 2; the “Post-emergence action rating, Chenop.” value is on record as 1; the “Post-emergence action rating, Digitaria” value is listed as 4. Besides, in assay [2], the “Post-emergence action rating, Echino.” value is reported as 4; the “Post-emergence action rating, Ipopur.” value amounted to 3; the “Post-emergence action rating, Panicum” value is listed as 3; the “Post-emergence action rating, Xanth.” value was 3.
`CCOC(=O)C1(C)CCC(=O)C(C(=O)c2ccc(C(F)(F)F)nc2COCCOC)=C1O` (centres unmarked) [A10-B14]: in assay [1], the “Pre-emergence action rating, Abutilon” value was found to be 1; the “Pre-emergence action rating, Amaranthus” value was determined as 1; the “Pre-emergence action rating, Chenop.” value is given as 1; the “Pre-emergence action rating, Digitaria” value was 6. In addition, in assay [1], the “Pre-emergence action rating, Echino.” value is 3 and the “Pre-emergence action rating, Panicum” value is reported as 3. In assay [2], the “Post-emergence action rating, Abutilon” value came to 2; the “Post-emergence action rating, Amaranth” value stood at 2; the “Post-emergence action rating, Chenop.” value stood at 1; the “Post-emergence action rating, Digitaria” value was found to be 2. Further, in assay [2], the “Post-emergence action rating, Echino.” value amounted to 3; the “Post-emergence action rating, Ipopur.” value was 2; the “Post-emergence action rating, Panicum” value amounted to 2; the “Post-emergence action rating, Xanth.” value turned out to be 2.
Turning to `CCN(CC)CC.O=C(C1=C(O)C2CCC(C2)C1=O)c1ccc(C(F)(F)F)nc1COC1CCCO1` (centres unmarked) [A837-B52 (Et3NH+)], in assay [1], the “Pre-emergence action rating, Abutilon” value came out at 1; the “Pre-emergence action rating, Amaranthus” value is 1; the “Pre-emergence action rating, Chenop.” value came out at 1; the “Pre-emergence action rating, Digitaria” value amounted to 1. Moreover, in assay [1], the “Pre-emergence action rating, Echino.” value was 2 and the “Pre-emergence action rating, Panicum” value was determined as 1. For the same compound, in assay [2], the “Post-emergence action rating, Abutilon” value was found to be 2; the “Post-emergence action rating, Amaranth” value is given as 2; the “Post-emergence action rating, Chenop.” value came out at 1; the “Post-emergence action rating, Digitaria” value is on record as 2. In addition, in assay [2], the “Post-emergence action rating, Echino.” value is 2; the “Post-emergence action rating, Ipopur.” value amounted to 2; the “Post-emergence action rating, Panicum” value is reported as 2; the “Post-emergence action rating, Xanth.” value is 2.
In the case of `O=C(C1=C(O)C2CCC(C2)C1=O)c1ccc(C(F)(F)F)nc1COC1CCCCC1` (centres unmarked) [A27-B52], in assay [1], the “Pre-emergence action rating, Abutilon” value came to 4; the “Pre-emergence action rating, Amaranthus” value is reported as 1; the “Pre-emergence action rating, Chenop.” value stood at 3; the “Pre-emergence action rating, Digitaria” value was found to be 2. In addition, in assay [1], the “Pre-emergence action rating, Echino.” value was 3 and the “Pre-emergence action rating, Panicum” value is on record as 1. Moreover, in assay [2], the “Post-emergence action rating, Abutilon” value was 3; the “Post-emergence action rating, Amaranth” value was found to be 2; the “Post-emergence action rating, Chenop.” value came to 5; the “Post-emergence action rating, Digitaria” value is 2. Further, in assay [2], the “Post-emergence action rating, Echino.” value was found to be 2; the “Post-emergence action rating, Ipopur.” value is 4; the “Post-emergence action rating, Panicum” value was 1; the “Post-emergence action rating, Xanth.” value stood at 2.
Take `O=C(OCc1nc(C(F)(F)F)ccc1C(=O)C1=C(O)C2CCC(C2)C1=O)c1ccccc1` (centres unmarked) [A844-B52]: in assay [1], the “Pre-emergence action rating, Abutilon” value came out at 1; the “Pre-emergence action rating, Amaranthus” value amounted to 1; the “Pre-emergence action rating, Chenop.” value was found to be 1; the “Pre-emergence action rating, Digitaria” value amounted to 2. Also, in assay [1], the “Pre-emergence action rating, Echino.” value was 2 and the “Pre-emergence action rating, Panicum” value amounted to 1. For the same compound, in assay [2], the “Post-emergence action rating, Abutilon” value was found to be 3; the “Post-emergence action rating, Amaranth” value came out at 3; the “Post-emergence action rating, Chenop.” value amounted to 1; the “Post-emergence action rating, Digitaria” value is given as 3. In assay [2], the “Post-emergence action rating, Echino.” value is on record as 4; the “Post-emergence action rating, Ipopur.” value stood at 3; the “Post-emergence action rating, Panicum” value was found to be 2; the “Post-emergence action rating, Xanth.” value is reported as 3.
For `CCCOCCOCc1nc(C(F)(F)F)ccc1C(=O)C1=C(O)C2CCC(C2)C1=O` (centres unmarked) [A841-B52], in assay [1], the “Pre-emergence action rating, Abutilon” value is 1; the “Pre-emergence action rating, Amaranthus” value is 1; the “Pre-emergence action rating, Chenop.” value came to 1; the “Pre-emergence action rating, Digitaria” value is recorded as 2. In addition, in assay [1], the “Pre-emergence action rating, Echino.” value is on record as 1 and the “Pre-emergence action rating, Panicum” value is given as 1. For the same compound, in assay [2], the “Post-emergence action rating, Abutilon” value was determined as 3; the “Post-emergence action rating, Amaranth” value was determined as 1; the “Post-emergence action rating, Chenop.” value is listed as 1; the “Post-emergence action rating, Digitaria” value is given as 4. In assay [2], the “Post-emergence action rating, Echino.” value was 4; the “Post-emergence action rating, Ipopur.” value amounted to 3; the “Post-emergence action rating, Panicum” value stood at 2; the “Post-emergence action rating, Xanth.” value was 3.
`COCCOCc1nc(C(F)(F)Cl)ccc1C(=O)C1=C(O)C2CCC(C2)C1=O` (centres unmarked) [A556-B52]: in assay [1], the “Pre-emergence action rating, Abutilon” value amounted to 1; the “Pre-emergence action rating, Amaranthus” value is listed as 2; the “Pre-emergence action rating, Chenop.” value was 1; the “Pre-emergence action rating, Digitaria” value is on record as 1. For the same compound, in assay [1], the “Pre-emergence action rating, Echino.” value came to 1 and the “Pre-emergence action rating, Panicum” value was 1. Further, in assay [2], the “Post-emergence action rating, Abutilon” value was found to be 1; the “Post-emergence action rating, Amaranth” value is 2; the “Post-emergence action rating, Chenop.” value is recorded as 1; the “Post-emergence action rating, Digitaria” value turned out to be 2. For the same compound, in assay [2], the “Post-emergence action rating, Echino.” value came to 2; the “Post-emergence action rating, Ipopur.” value amounted to 2; the “Post-emergence action rating, Panicum” value came out at 1; the “Post-emergence action rating, Xanth.” value is reported as 2.
As for `O=C(C1=C(O)C2CCC(C2)C1=O)c1ccc(C(F)(F)F)nc1COCC1CO1` (centres unmarked) [A57-B52 (H5), 4-Hydroxy-3-(2-oxiranylmethoxymethyl-6-trifluoromethylpyridine-3-carbonyl)-bicyclo[3.2.1]oct-3-en-2-one], in assay [1], the “Pre-emergence action rating, Abutilon” value came to 1; the “Pre-emergence action rating, Amaranthus” value is 1; the “Pre-emergence action rating, Chenop.” value was found to be 1; the “Pre-emergence action rating, Digitaria” value amounted to 1. Further, in assay [1], the “Pre-emergence action rating, Echino.” value is recorded as 1 and the “Pre-emergence action rating, Panicum” value turned out to be 1. Besides, in assay [2], the “Post-emergence action rating, Abutilon” value came to 1; the “Post-emergence action rating, Amaranth” value came to 1; the “Post-emergence action rating, Chenop.” value worked out at 1; the “Post-emergence action rating, Digitaria” value amounted to 1. Also, in assay [2], the “Post-emergence action rating, Echino.” value is given as 2; the “Post-emergence action rating, Ipopur.” value is given as 2; the “Post-emergence action rating, Panicum” value is 1; the “Post-emergence action rating, Xanth.” value was found to be 2.
Consider `CCN(CC)CC.COCCOCc1nc(C(F)(F)F)ccc1C(=O)C1=C(O)C2CCC(C2)C1=O` (centres unmarked) [A10-B52 (Et3NH+)], for which, in assay [1], the “Pre-emergence action rating, Abutilon” value was 1; the “Pre-emergence action rating, Amaranthus” value was determined as 1; the “Pre-emergence action rating, Chenop.” value came to 1; the “Pre-emergence action rating, Digitaria” value came to 1. Also, in assay [1], the “Pre-emergence action rating, Echino.” value was 2 and the “Pre-emergence action rating, Panicum” value is 1. Also, in assay [2], the “Post-emergence action rating, Abutilon” value was 2; the “Post-emergence action rating, Amaranth” value worked out at 2; the “Post-emergence action rating, Chenop.” value is listed as 1; the “Post-emergence action rating, Digitaria” value was 2. In addition, in assay [2], the “Post-emergence action rating, Echino.” value worked out at 2; the “Post-emergence action rating, Ipopur.” value came out at 2; the “Post-emergence action rating, Panicum” value worked out at 2; the “Post-emergence action rating, Xanth.” value was found to be 2.
As for `CCOCCOCc1nc(C(F)(F)F)ccc1C(=O)c1cnn(C)c1O` [A11-C5], in assay [1], the “Pre-emergence action rating, Abutilon” value stood at 1; the “Pre-emergence action rating, Amaranthus” value worked out at 1; the “Pre-emergence action rating, Chenop.” value was found to be 1; the “Pre-emergence action rating, Digitaria” value was determined as 2. Further, in assay [1], the “Pre-emergence action rating, Echino.” value was found to be 1 and the “Pre-emergence action rating, Panicum” value stood at 1. For the same compound, in assay [2], the “Post-emergence action rating, Abutilon” value is 2; the “Post-emergence action rating, Amaranth” value is reported as 2; the “Post-emergence action rating, Chenop.” value is reported as 1; the “Post-emergence action rating, Digitaria” value amounted to 2. In assay [2], the “Post-emergence action rating, Echino.” value was 2; the “Post-emergence action rating, Ipopur.” value is 2; the “Post-emergence action rating, Panicum” value is listed as 1; the “Post-emergence action rating, Xanth.” value amounted to 2.
